Reference: patent US20030161853A1, “Methylglycinediacetic acid and deribatives thereof useful as exfoliating agents” (L'OREAL, priority 2002, published 2003)

Test system: corneodesmosine
Test: Exfoliation test by measurement of the degradation of corneodesmosines (immunoblot of stratum corneum acetone powders, antibody G36-19, 46 kDa band)
Type: biochemical, human
Details: for % increase in the degradation of corneodesmosine: comparative chelating agents tested in the same manner as Example 1 (2% active ingredient, pH 8.0, 8 h at 34° C.); for Percentage increase in the degradation of corneodesmosine: aqueous solution containing 2% of active ingredient, pH 8.0, incubation 8 h at 34° C., relative to control without active ingredient
From the text: Exfoliation Test by Measurement of the Degradation of Corneodesmosines
This Example studies the capacity of trisodium methylglycine diacetate to promote exfoliation by the degradation of corneodesmosines.
Corneodesmosine is one of the majority markers of exfoliation in the corneodesmosome. It is studied by immunoblotting after separation by electrophoresis and transfer to a membrane. […] The murine monoclonal antibody G36-19 is specific for corneodesmosine; it belongs to a series of antibodies directed against epidermal differentiation antigens, produced after the immunization of a mouse with a human plantar horny layer homogenate, and then characterized (Serre G. et al, J. Invest. Dermatol. 1991, 97(6), 1061-72).
Varnish strippings are performed on the lower legs of volunteers (modification of the procedure of Lundström A. and Egelrud T., Acta Derm. Venereol. (stockh) 71, 471-474, 1991). The nylon-varnish leaves associated with the corneocytes are immersed in acetone (1 ml/cm^2) to detach the corneocytes. The mixture is filtered then rinsed three times with the same volume of acetone in order to remove all traces of varnish. Finally, the mixture is dried under vacuum:
acetone-containing powders of stratum corneum are thus obtained.
The acetone-containing powders are divided up into 1 mg aliquots. 100 μl of aqueous solutions containing 2% of active ingredient, adjusted to pH 8.0, are added. Controls without active ingredient are prepared under the same conditions. Two incubation times are studied: t=0 and t=8 h. In the latter case, incubation takes place at 34° C. with agitation.
After incubation, the mixtures are centrifuged for 10 min at 10,000 g. The supernatant is removed and replaced with 100 μl of Laemmli buffer (0.0625 M Tris/HCl pH 6.8, 2% SDS, 200 mM DTT, 10% glycerol) for extraction of the proteins. The mixture is boiled for 10 min at 100° C. and then ground in a Potter mill. The mixture is centrifuged for 10 min at 10,000 g and the supernatant is then collected. It contains the corneodesmosomal proteins.
The total proteins are assayed by Bradford's method (Biorad kit). This allows an adjustment of the samples to 0.6 mg/ml and a true comparison of the treatments. The samples together with a Rainbow low-molecular standard (Amersham Pharmacia Biotech), in a ratio of ⅓, are separated by electrophoresis on 12% acrylamide gel for ½ h at 100 V and then for 1 h at 200 V. After electrophoresis, the proteins are transferred to an Immobilon-P membrane (Millipore) for 3 h at 60 V. The membrane is then incubated for 2 times 15 min in TBS-TL buffer (Tris 25 mM, 0.15 M NaCl pH 7.2, 0.05% Tween 20, 0.5% skimmed milk powder) to block the non-specific sites. Incubation with the antibody G36-19, in a ratio of 1/12,500, is performed overnight at 4° C. After two rinses of 5 min in TBS-TL, the membrane is incubated with an IG(H+L) anti-mouse goat antibody/peroxidase conjugate (Biorad), in a ratio of 1/4000, for 1 h 30 min at room temperature. After several rinses of 5 min in TBS-TL and then TBS (without milk or Tween), the membrane is incubated for 1 min in 10 ml of ECL reagent (Amersham Pharmacia Biotech). The chemiluminescence of the corneodesmosine bands is measured with FluorS Multimager (Biorad). The 46 kDa band is quantified using the Quantity-one software (Biorad).
Glycine is used as a reference compound in this study, it having been shown in patent application EP-A2-0 852 949 (Shiseido) that glycine promotes the degradation of desmoglein (corneodesmosomal protein). […]

Q: For CCCCCCCCCCCC(=O)N(CCN(CC(=O)O)CC(=O)O)CC(=O)O [Lauroylethylenediaminetriacetic acid, lauroylethylenediaminetriacetic acid], which “% increase in the degradation of corneodesmosine” value is on record?
A: Its value is −80%.

Q: N=C(CC(=O)[O-])C(=O)[O-].[Na+].[Na+] [Na iminosuccinate, sodium iminosuccinate] was tested. Which “% increase in the degradation of corneodesmosine” value did it give?
A: The value was −79%.

Q: NCC(=O)O [Glycine] was tested. Which “Percentage increase in the degradation of corneodesmosine” value did it give?
A: Its value is 30%.

Q: For CC(C(=O)[O-])N(CC(=O)[O-])CC(=O)[O-].[Na+].[Na+].[Na+] (centres unmarked) [Trisodium methylglycine diacetate, trisodium methylglycine diacetate], which “effect on the degradation of corneodesmosines (in words)” value (2% active ingredient, pH 8.0, 8 h at 34° C.) is on record?
A: The value was “promotes the degradation of corneodesmosines”.

Q: What about the “Percentage increase in the degradation of corneodesmosine” value of the same molecule?
A: Its value is 59%.
